The assay addresses T1, 5α-Reductase of Rat Liver Microsomes (Rattus norvegicus, UniProt P24008).
T1 sequence (P24008 1-259): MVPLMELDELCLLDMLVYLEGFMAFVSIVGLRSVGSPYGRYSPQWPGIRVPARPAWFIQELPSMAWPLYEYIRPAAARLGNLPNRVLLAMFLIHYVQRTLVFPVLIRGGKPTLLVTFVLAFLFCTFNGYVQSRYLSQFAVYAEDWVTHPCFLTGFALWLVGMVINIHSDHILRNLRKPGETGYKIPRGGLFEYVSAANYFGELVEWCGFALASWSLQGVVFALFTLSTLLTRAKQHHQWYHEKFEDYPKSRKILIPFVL
Kind of assay: biochemical. The following applies: for inhibition at 5 µM: read-out: % Inhibition of [^3 H]4-MA binding, Table 2, 5 μM.

[1] abbreviates: read-out: % Inhibition of [^3 H]4-MA binding, Table 2, 10 μM.
The mark [2] stands for this setting: read-out: % Inhibition of [^3 H]4-MA binding, Table 2, 40 μM.
Setting [3] is: read-out: % Inhibition of [^3 H]4-MA binding, Table 2, 200 μM.
The mark [4] stands for this setting: read-out: % Inhibition of [^3 H]4-MA binding.

Like-named read-outs stand apart in the source and are kept apart here.

One may read the IC50 as the concentration that inhibits the measured activity by half. Low readings indicate inhibition by little substance, high ones a need for much substance. Broadly, the inhibition is the share of the control response that was lost under treatment.

Procedure: Briefly, the binding assay solution, in a final volume of 0.15 ml, contained microsomes (2-20 μg of protein), 0.08 μCi of [^3 H]4-MA, 0.1 mM-NADPH, 1 mM-dithiothreitol and 50 mM-potassium phosphate, pH 7.0, with or without the indicated amount of a lipid or an inhibitor preparation. Lipids were dissolved in ethanol and added in 1-5 μl volumes. Control tubes received the same amount of ethanol. After incubation at 0° C. for 1 h, the [^3 H]4-MA bound to microsomes was determined by collecting microsomes on a Whatman GF/1F glass fibre filter and washing with 10 ml of 20 mM-potassium phosphate, pH 7.0, containing 0.01% CHAPS to remove unbound [^3 H]4-MA.
Microsomes were prepared at 4° C. from a buffered 0.32M-sucrose homogenate of human liver and from the livers of adult Sprague-Dawley female rats by differential centrifugation as described previously (Liang et al., 1990), and were used in the assay of 5α-reductase activity. In some experiments, microsomes were solubilized with 0.1% polyoxyethylene ether W-1 as described previously (Liang et al., 1990), except for the substitution of polyoxyethylene ether W-1 for Lubrol-WX.

Consider `CCCCC/C=C\C/C=C\C/C=C\C/C=C\CCCCCC(=O)O`, for which the IC50 was 46 µM and the inhibition at 5 µM is under 10%. The inhibition at 10 µM under setting [1] was under 10%. Besides, the inhibition at 40 µM under setting [2] amounted to 41%. Moreover, the inhibition at 200 µM under setting [3] stood at 79%.
For the compound `CCCCCCCC/C=C\CCCCCCCCCCC(=O)O`, the IC50 worked out at 154 µM and the inhibition at 5 µM was under 10%. In addition, the inhibition at 10 µM under setting [1] worked out at 15%. Also, the inhibition at 40 µM under setting [2] is 25%. Also, the inhibition at 200 µM under setting [3] came out at 60%.
In the case of `CCCCCCCCC=CCC=CCC=CCCCC(=O)O` [5,8,11-eicosatrienoic acid], the 50% inhibitory concentration (IC50) is 50 µM.
As for `CCCCCCCCCCCCCC/C=C\CCCC(=O)O` [5-Eicosenoic Acid, 5-eicosenoic acid], the IC50 was over 200 µM and the inhibition at 5 µM is under 10%. Also, the inhibition at 10 µM under setting [1] was under 10%. In addition, the inhibition at 40 µM under setting [2] was under 10%. For the same compound, under setting [3], the inhibition at 200 µM was under 10%.
With `CCCCC/C=C\C/C=C\C/C=C\CCCCCCC(=O)O` [8,11,14-cis-Eicosatrienoic Acid, 8,11,14-eicosatrienoic acid], the IC50 amounted to 15 µM and the inhibition at 5 µM was under 10%. The inhibition at 10 µM under setting [1] turned out to be 42%. Moreover, the inhibition at 40 µM under setting [2] turned out to be 92%. For the same compound, under setting [3], the inhibition at 200 µM was found to be 82%.
Turning to `CCCCCCCCCCC/C=C\CCCCCCC(=O)O` [8-Eicosenoic Acid, 8-eicosenoic acid], inhibition was half-maximal at 48 µM (IC50) and the inhibition at 5 µM is 14%. For the same compound, under setting [1], the inhibition at 10 µM is 41%. Further, the inhibition at 40 µM under setting [2] stood at 52%. Under setting [3], the inhibition at 200 µM was found to be 81%.
Regarding `CCCCC/C=C\C/C=C\CCCCCCCCC(=O)O` [10,13-Nonadecadienoic Acid, 10,13-nonadecadienoic acid], the IC50 came out at 86 µM and the inhibition at 5 µM is under 10%. In addition, under setting [1], the inhibition at 10 µM is under 10%. In addition, the inhibition at 40 µM under setting [2] came to 37%. Moreover, under setting [3], the inhibition at 200 µM worked out at 83%.
For `CCCC/C=C\CCCCCCCCC(=O)O` [10-Pentadecenoic Acid, 10-pentadecenoic acid], the IC50 was found to be 100 µM and the inhibition at 5 µM was under 10%. Also, the inhibition at 10 µM under setting [1] was under 10%. Besides, the inhibition at 40 µM under setting [2] is under 10%. Further, the inhibition at 200 µM under setting [3] worked out at 71%.
For the compound `CCCCCC/C=C\CCCCCCCCC(=O)O` [10-cis-Heptadecenoic Acid, 10-heptadecenoic acid], the IC50 was 28 µM and the inhibition at 5 µM is under 10%. Further, under setting [1], the inhibition at 10 µM was under 10%. Besides, under setting [2], the inhibition at 40 µM worked out at 83%. Also, under setting [3], the inhibition at 200 µM was 84%.
For `CCCCCCCC/C=C\CCCCCCCCC(=O)O` [10-cis-Nonadecenoic Acid, 10-nonadecenoic acid], the IC50 turned out to be 130 µM and the inhibition at 5 µM is under 10%. Besides, under setting [1], the inhibition at 10 µM is under 10%. Under setting [2], the inhibition at 40 µM was found to be 13%. Besides, under setting [3], the inhibition at 200 µM turned out to be 79%.
As for `CCCCCC/C=C/CCCCCCCCC(=O)O` [10-trans-Heptadecenoic Acid, 10-trans-heptadecenoicacid], the IC50 is over 200 µM and the inhibition at 5 µM is under 10%. Also, under setting [1], the inhibition at 10 µM was under 10%. Further, the inhibition at 40 µM under setting [2] was under 10%. The inhibition at 200 µM under setting [3] was determined as 40%.
For `CCCCCCCC/C=C/CCCCCCCCC(=O)O` [10-trans-Nonadecenoic Acid, 10-trans nonadecenoic acid], the IC50 was over 200 µM and the inhibition at 5 µM is under 10%. The inhibition at 10 µM under setting [1] was under 10%. The inhibition at 40 µM under setting [2] was under 10%. Further, the inhibition at 200 µM under setting [3] turned out to be 32%.
For `CC/C=C\C/C=C\C/C=C\CCCCCCCCCC(=O)O` [11,14,17-cis-Eicosatrienoic Acid, 11,14,17-eicosatrienoic acid], the midpoint of inhibition, the IC50, lay at 29 µM and the inhibition at 5 µM is under 10%. Further, under setting [1], the inhibition at 10 µM worked out at 1%. Under setting [2], the inhibition at 40 µM was 78%. Moreover, under setting [3], the inhibition at 200 µM was 94%.
For `CC/C=C\C/C=C\C/C=C\CCCCCCCCCC(=O)Cl` [11,14,17-cis-Eicosatrienoyl Chloride, 11,14,17-eicosatrienoyl chloride] the same measures were over 200 µM, under 10%, under 10%, under 10% and under 10%.
For `CCCCC/C=C\C/C=C\CCCCCCCCCC(=O)OC` [11,14-cis-Eicosadienoate, methyl 11,14 eicosadienoate] the same measures were over 200 µM, under 10%, under 10%, under 10% and under 10%.
On the same counts, the results for `CCCCC/C=C\C/C=C\CCCCCCCCCC(=O)O` [11,14-cis-Eicosadienoic Acid, 11,14 eicosadienoic acid] are 131 µM, under 10%, under 10%, under 10% and 89%.
`CCCCC/C=C\C/C=C\CCCCCCCCCC(=O)Cl` [11,14-cis-Eicosaidienoyl Chloride, 11,14-eicosadienoyl chloride]: the IC50 is over 200 µM and the inhibition at 5 µM is under 10%. Under setting [1], the inhibition at 10 µM was under 10%. In addition, the inhibition at 40 µM under setting [2] was under 10%. For the same compound, under setting [3], the inhibition at 200 µM is under 10%.
For the compound `CCCCC/C=C/C/C=C/CCCCCCCCCC(=O)O` [11,14-trans-Eicosadienoic Acid, trans 11,14-eicosadienoic acid], the IC50 is over 200 µM and the inhibition at 5 µM is under 10%. The inhibition at 10 µM under setting [1] was under 10%. Moreover, under setting [2], the inhibition at 40 µM was under 10%. Besides, the inhibition at 200 µM under setting [3] is under 10%.
`CCCCCCCC/C=C\CCCCCCCCCC(=O)O` [11-Eicosenoic Acid, 11 eicosenoic acid]: the IC50 was 146 µM and the inhibition at 5 µM was under 10%. In addition, under setting [1], the inhibition at 10 µM was under 10%. The inhibition at 40 µM under setting [2] came to 15%. The inhibition at 200 µM under setting [3] worked out at 76%.
For `CCCCCC/C=C\CCCCCCCCCC(=O)O` [11-Octadecenoic Acid, 11-octadecenoic acid], the half-inhibitory concentration (IC50) is 26 µM and the inhibition at 5 µM was under 10%. In addition, the inhibition at 10 µM under setting [1] was determined as 14%. The inhibition at 40 µM under setting [2] came out at 55%. Under setting [3], the inhibition at 200 µM came to 81%.
On the same counts, the results for `CCCCC/C=C\CCCCCCCCCCC(=O)O` [12-Octadecenoic Acid, 12-octadecenoic acid] are over 200 µM, under 10%, under 10%, under 10% and under 10%.
On the same counts, the results for `CCCCCC/C=C\CCCCCCCCCCC(=O)O` [12-cis-Nonadecenoic Acid, 12-nonadecenoic acid] are 90 µM, under 10%, under 10%, 32% and 91%.
For `CC/C=C\C/C=C\C/C=C\CCCCCCCCCCCC(=O)O` [13,16,19-Docosatrienoic Acid, 13,16,19-docosatrienoic acid] the same measures were 163 µM, under 10%, under 10%, under 10% and 65%.
Consider `CCCCC/C=C\C/C=C\CCCCCCCCCCCC(=O)O` [13,16-Docosadienoic Acid, 13,16-docosadienoic acid], for which the IC50 was found to be 118 µM and the inhibition at 5 µM was under 10%. Further, the inhibition at 10 µM under setting [1] is under 10%. Besides, the inhibition at 40 µM under setting [2] was determined as 21%. Further, under setting [3], the inhibition at 200 µM turned out to be 93%.
Turning to `CCCC/C=C\CCCCCCCCCCCC(=O)O` [13-Octadecenoic Acid, 13-octadecenoic acid], the IC50 came to 93 µM and the inhibition at 5 µM is under 10%. Further, the inhibition at 10 µM under setting [1] was under 10%. For the same compound, under setting [2], the inhibition at 40 µM is under 10%. Besides, under setting [3], the inhibition at 200 µM is 57%.
As for `CCCCCCCC/C=C\CCCCCCCCCCCCC(=O)O` [14-Tricosenoic Acid, 14 tricosenoic acid], the IC50 is over 200 µM and the inhibition at 5 µM is under 10%. For the same compound, the inhibition at 10 µM under setting [1] was under 10%. Further, the inhibition at 40 µM under setting [2] is under 10%. In addition, the inhibition at 200 µM under setting [3] was found to be 36%.
As to `CCCCCCCCCCCCCCCCCCCC(=O)Cl` [Arachidoyl Chloride, archidoyl chloride], the IC50 was over 200 µM. The inhibition at 10 µM under setting [1] is under 10%. Also, the inhibition at 40 µM under setting [2] is under 10%. Further, under setting [3], the inhibition at 200 µM is under 10%.
For the compound `CCCCC/C=C\C/C=C\CCCCCCCC(=O)OC` [Linoleic acid methyl ester], under setting [4], the inhibition at 40 µM was under 10% and the inhibition at 200 µM was under 10%.
Take `CC/C=C\C/C=C\C/C=C\CCCCCCCC(=O)Cl` [Linolenoyl Chloride]: the inhibition at 200 µM under setting [4] was under 10%.
Turning to `CCCCC/C=C\C/C=C\CCCCCCCCO` [Linoleyl alcohol], under setting [4], the inhibition at 10 µM is under 10%, the inhibition at 40 µM is under 10% and the inhibition at 200 µM was found to be 25 ± 5%.

Source of the values: patent US5605929A, “Methods and compositions for inhibiting 5α-reductase activity” (priority 1995, dated 1997).
